In paper PMC10794144, “A novel antibiotic class targeting the lipopolysaccharide transporter” (Nature, 2024):
Read-outs that look alike come from different tables or passages of the source.

How the values were obtained:
Assay in all cases: Off-target screening (CEREP)
Type in all cases: binding
Settings in all cases: read-out: percent inhibition
[1] = molecular target: T1, Mu opioid receptor (Homo sapiens, UniProt P35372)
T1 construct: purchased Eurofins CEREP SA
Experimental: (§1) Supplementary Table 1 │ Off-target activity screening f or MCP compou nds […]
(§2) The assays given in the table above were conducted at Eurofins CEREP S A (Celle-Lévescault, France) and were run as single point measurements in duplicates in the presence of 10 µ M of the test compound and reported as percent inhibition of the radioligand signal or control enzymatic activity. n.d., not

[2] = molecular target: T2, Adenosine A3 respetor (Homo sapiens, UniProt P0DMS8)
T2 construct: purchased Eurofins CEREP SA
T2 sequence (P0DMS8 1-318): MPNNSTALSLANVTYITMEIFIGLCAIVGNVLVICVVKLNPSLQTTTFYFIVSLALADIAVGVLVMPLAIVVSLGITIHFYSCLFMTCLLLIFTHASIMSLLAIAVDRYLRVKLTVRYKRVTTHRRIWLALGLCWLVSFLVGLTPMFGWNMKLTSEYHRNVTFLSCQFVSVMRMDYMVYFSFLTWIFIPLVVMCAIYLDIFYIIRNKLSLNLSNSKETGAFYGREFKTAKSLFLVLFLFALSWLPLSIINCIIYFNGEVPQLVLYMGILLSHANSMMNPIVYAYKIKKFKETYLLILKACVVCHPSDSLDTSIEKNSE
Experimental: as §1, §2

[3] = molecular target: T3, Cannabinoid receptor CB1 (Homo sapiens, UniProt P21554)
T3 construct: purchased Eurofins CEREP SA
T3 sequence (P21554 whole entry): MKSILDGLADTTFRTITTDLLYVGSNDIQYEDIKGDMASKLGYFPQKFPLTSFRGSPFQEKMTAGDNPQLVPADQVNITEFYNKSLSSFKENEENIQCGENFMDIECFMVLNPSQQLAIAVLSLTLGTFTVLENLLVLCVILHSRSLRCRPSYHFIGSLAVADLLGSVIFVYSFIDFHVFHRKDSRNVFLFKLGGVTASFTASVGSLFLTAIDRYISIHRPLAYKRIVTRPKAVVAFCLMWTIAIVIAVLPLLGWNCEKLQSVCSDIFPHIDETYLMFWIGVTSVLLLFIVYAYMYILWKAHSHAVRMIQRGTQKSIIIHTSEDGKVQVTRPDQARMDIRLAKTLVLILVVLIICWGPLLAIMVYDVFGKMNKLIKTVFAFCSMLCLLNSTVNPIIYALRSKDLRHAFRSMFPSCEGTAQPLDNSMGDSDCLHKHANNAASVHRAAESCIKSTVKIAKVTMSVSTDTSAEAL
Experimental: as §1, §2

[4] = molecular target: T4, 5HT1A (Homo sapiens, UniProt P08908)
T4 construct: purchased Eurofins CEREP SA
T4 sequence (P08908 1-422): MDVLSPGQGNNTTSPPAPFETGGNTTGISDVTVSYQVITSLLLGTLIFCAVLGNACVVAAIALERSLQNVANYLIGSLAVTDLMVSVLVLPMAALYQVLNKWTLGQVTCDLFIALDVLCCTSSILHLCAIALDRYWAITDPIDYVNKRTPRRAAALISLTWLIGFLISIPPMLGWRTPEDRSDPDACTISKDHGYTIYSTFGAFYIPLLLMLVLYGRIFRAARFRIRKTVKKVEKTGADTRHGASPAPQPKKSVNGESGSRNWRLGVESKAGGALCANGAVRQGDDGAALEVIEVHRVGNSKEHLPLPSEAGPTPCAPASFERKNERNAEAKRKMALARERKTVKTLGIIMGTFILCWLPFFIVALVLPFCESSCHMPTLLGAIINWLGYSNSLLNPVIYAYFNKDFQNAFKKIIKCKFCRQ
Experimental: as §1, §2

[5] = molecular target: T5, 5-HT transporter (Homo sapiens, UniProt P31645)
T5 construct: purchased Eurofins CEREP SA
T5 sequence (P31645 whole entry): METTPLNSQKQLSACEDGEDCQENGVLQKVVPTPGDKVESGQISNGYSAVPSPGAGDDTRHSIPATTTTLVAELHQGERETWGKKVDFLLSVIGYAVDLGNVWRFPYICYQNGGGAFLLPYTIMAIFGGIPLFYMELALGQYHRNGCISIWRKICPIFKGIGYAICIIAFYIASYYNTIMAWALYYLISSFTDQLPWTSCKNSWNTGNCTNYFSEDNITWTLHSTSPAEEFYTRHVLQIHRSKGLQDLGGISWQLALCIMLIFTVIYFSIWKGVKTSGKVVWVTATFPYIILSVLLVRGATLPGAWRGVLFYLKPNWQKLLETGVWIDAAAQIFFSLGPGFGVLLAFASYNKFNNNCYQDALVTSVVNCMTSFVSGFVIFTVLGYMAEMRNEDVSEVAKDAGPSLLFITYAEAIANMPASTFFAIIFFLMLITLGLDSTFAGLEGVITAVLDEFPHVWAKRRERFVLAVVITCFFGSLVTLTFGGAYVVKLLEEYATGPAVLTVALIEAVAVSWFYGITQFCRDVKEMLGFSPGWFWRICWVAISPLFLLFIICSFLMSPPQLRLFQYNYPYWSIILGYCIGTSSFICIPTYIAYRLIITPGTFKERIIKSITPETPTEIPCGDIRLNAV
Experimental: as §1, §2

[6] = molecular target: T6, Norepinephrine transporter (Homo sapiens, UniProt P23975)
T6 construct: purchased Eurofins CEREP SA
T6 sequence (P23975 whole entry): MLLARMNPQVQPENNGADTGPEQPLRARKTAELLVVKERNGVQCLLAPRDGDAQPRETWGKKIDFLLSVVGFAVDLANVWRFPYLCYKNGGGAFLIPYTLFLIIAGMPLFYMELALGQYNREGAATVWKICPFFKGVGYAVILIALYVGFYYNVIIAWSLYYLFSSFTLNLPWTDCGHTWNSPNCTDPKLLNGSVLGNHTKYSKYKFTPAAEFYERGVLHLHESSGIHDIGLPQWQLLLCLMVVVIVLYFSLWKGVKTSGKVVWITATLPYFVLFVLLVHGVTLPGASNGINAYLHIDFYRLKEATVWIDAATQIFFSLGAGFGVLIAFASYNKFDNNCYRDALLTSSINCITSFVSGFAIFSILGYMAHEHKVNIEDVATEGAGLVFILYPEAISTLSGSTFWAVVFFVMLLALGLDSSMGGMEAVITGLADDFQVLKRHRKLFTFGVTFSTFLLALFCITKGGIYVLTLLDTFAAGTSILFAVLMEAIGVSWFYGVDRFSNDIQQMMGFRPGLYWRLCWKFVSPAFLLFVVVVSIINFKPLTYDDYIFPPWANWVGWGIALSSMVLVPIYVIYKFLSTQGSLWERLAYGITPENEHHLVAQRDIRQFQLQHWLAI
Experimental: as §1, §2

[7] = molecular target: T7, Kappa opioid receptor (Homo sapiens, UniProt P41145)
T7 construct: purchased Eurofins CEREP SA
T7 sequence (P41145 whole entry): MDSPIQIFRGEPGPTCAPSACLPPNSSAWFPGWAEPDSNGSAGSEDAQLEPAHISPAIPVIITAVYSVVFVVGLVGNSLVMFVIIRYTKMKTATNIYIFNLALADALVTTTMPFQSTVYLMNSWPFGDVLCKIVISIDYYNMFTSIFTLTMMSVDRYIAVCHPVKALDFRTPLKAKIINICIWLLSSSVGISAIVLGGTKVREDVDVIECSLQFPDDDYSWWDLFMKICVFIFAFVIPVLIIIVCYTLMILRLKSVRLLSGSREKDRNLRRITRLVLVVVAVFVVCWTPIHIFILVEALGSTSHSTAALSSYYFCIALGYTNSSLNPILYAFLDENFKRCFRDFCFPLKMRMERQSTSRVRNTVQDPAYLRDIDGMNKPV
Experimental: as §1, §2

[8] = molecular target: T8, Beta2-adrenoreceptor (Homo sapiens, UniProt P07550)
T8 construct: purchased Eurofins CEREP SA
T8 sequence (P07550 whole entry): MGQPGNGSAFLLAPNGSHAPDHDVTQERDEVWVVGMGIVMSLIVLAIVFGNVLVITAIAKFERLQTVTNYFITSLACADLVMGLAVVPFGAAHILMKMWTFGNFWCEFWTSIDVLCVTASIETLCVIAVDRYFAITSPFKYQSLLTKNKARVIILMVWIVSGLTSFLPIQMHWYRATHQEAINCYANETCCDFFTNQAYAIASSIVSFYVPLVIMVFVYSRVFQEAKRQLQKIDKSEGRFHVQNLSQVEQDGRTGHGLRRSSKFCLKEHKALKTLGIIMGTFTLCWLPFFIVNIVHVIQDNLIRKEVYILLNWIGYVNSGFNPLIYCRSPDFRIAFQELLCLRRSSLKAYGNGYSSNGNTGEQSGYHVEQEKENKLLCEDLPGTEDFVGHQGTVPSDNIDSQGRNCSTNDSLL
Experimental: as §1, §2

[9] = molecular target: T9, Alpha1A-adrenoreceptor (Homo sapiens, UniProt P35348)
T9 construct: purchased Eurofins CEREP SA
T9 sequence (P35348 1-466): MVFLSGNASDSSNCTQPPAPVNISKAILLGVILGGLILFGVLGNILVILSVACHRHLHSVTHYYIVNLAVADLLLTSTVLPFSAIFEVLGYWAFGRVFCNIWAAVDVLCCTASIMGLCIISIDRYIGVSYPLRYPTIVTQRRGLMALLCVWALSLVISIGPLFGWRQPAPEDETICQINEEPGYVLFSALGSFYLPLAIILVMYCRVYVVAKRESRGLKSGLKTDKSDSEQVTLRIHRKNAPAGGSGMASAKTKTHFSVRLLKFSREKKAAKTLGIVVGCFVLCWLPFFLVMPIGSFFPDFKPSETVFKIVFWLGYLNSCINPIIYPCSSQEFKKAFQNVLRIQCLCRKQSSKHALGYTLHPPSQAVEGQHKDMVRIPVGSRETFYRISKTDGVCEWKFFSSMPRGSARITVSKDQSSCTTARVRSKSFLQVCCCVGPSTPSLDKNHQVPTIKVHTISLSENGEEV
Experimental: as §1, §2

[10] = molecular target: T10, Histamine H1 receptor (Homo sapiens, UniProt P35367)
T10 construct: purchased Eurofins CEREP SA
T10 sequence (P35367 whole entry): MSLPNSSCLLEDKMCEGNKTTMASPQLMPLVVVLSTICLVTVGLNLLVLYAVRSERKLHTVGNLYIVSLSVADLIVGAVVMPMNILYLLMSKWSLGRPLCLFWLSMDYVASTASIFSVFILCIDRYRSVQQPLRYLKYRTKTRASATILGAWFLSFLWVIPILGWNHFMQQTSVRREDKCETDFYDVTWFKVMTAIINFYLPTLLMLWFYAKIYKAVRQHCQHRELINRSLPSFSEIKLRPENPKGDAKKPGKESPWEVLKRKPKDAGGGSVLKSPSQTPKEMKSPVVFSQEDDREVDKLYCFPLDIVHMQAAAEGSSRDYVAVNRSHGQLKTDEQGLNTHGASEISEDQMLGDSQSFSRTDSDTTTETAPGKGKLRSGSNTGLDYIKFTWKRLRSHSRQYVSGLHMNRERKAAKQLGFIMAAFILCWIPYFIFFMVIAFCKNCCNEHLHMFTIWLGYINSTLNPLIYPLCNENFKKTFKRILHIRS
Experimental: as §1, §2

[11] = molecular target: T11, 5HT2A (Homo sapiens, UniProt P28223)
T11 construct: purchased Eurofins CEREP SA
T11 sequence (P28223 whole entry): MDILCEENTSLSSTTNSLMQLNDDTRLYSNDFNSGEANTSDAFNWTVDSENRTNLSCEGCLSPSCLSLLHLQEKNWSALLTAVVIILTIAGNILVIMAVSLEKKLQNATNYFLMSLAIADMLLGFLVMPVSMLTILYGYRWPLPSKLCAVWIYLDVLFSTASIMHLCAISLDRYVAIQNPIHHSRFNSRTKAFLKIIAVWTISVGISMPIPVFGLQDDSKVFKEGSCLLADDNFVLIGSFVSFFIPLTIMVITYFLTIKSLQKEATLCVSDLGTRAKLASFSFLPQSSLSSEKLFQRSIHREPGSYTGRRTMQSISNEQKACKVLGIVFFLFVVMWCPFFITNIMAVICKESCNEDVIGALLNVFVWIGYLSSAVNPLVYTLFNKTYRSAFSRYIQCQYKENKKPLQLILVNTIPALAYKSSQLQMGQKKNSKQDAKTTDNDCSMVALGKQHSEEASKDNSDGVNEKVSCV
Experimental: as §1, §2

[12] = molecular target: T12, Muscarinic receptor M2 (Homo sapiens, UniProt P08172)
T12 construct: purchased Eurofins CEREP SA
T12 sequence (P08172 1-466): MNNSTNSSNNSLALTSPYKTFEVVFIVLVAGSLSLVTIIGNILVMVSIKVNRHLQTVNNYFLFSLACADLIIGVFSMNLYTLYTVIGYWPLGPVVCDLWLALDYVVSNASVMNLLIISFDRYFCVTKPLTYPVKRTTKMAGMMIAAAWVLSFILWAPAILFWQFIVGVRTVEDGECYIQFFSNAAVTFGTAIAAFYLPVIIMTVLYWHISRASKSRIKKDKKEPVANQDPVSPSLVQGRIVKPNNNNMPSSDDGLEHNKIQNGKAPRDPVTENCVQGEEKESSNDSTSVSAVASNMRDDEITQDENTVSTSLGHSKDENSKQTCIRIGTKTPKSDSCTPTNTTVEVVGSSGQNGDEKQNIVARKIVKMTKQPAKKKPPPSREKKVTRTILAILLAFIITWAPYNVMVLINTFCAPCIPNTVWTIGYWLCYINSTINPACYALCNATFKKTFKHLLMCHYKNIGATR
Experimental: as §1, §2

[13] = molecular target: T13, Alpha2A-adrenoreceptor (Homo sapiens, UniProt P08913)
T13 construct: purchased Eurofins CEREP SA
T13 sequence (P08913 1-465): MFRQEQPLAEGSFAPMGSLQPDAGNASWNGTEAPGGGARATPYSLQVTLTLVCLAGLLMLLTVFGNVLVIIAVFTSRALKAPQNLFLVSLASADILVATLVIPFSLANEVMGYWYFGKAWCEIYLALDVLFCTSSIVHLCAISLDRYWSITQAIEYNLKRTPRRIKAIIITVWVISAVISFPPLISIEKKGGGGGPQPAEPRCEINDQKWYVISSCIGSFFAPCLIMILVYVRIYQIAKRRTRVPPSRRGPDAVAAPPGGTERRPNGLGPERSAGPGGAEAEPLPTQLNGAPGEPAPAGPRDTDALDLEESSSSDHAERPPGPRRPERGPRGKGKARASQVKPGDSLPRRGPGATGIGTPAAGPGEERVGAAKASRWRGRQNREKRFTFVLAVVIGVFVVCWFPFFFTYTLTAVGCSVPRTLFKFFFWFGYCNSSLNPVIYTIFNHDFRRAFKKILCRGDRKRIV
Experimental: as §1, §2

T1 sequence (P35372 whole entry): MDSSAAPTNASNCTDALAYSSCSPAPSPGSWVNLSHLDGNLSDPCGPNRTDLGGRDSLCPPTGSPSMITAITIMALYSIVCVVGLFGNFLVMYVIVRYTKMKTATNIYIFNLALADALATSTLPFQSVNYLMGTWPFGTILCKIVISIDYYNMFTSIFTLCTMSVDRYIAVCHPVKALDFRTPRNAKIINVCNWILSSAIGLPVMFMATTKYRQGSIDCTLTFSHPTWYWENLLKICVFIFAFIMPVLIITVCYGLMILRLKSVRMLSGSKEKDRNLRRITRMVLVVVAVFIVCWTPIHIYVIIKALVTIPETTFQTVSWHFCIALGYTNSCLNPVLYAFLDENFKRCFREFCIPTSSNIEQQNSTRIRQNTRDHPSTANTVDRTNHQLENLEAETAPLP

| SMILES | inhibition at 10 µM ([1]; 10 µM, duplicates) | inhibition at 10 µM ([2]; 10 µM, duplicates) | inhibition at 10 µM ([3]; 10 µM, duplicates) | inhibition at 10 µM ([4]; 10 µM, duplicates) | inhibition at 10 µM ([5]; 10 µM, duplicates) | inhibition at 10 µM ([6]; 10 µM, duplicates) | inhibition at 10 µM ([7]; 10 µM, duplicates) | inhibition at 10 µM ([8]; 10 µM, duplicates) | inhibition at 10 µM ([9]; 10 µM, duplicates) | inhibition at 10 µM ([10]; 10 µM, duplicates) | inhibition at 10 µM ([11]; 10 µM, duplicates) | inhibition at 10 µM ([12]; 10 µM, duplicates) | inhibition at 10 µM ([13]; 10 µM, duplicates) | inhibition at 10 µM [1] | inhibition at 10 µM [2] | inhibition at 10 µM [3] | inhibition at 10 µM [4] | inhibition at 10 µM [5] | inhibition at 10 µM [6] | inhibition at 10 µM [7] | also measured |
| --- | --- | --- | --- | --- | --- | --- | --- | --- | --- | --- | --- | --- | --- | --- | --- | --- | --- | --- | --- | --- | --- |
| CN1C(=O)[C@H](CCCN)NC(=O)[C@H](CCCN)NCc2ccccc2Sc2ccccc2CNC(=O)[C@@H]1Cc1c[nH]c2ccccc12 [RO7036668] | 63% | 32% | -26% | 33% | 13% | 43% | 69% | 3% | 15% | 16% | -2% | 14% | -2% | – | – | – | – | – | – | – | – |
| CN1C(=O)[C@H](CCCCN)NC(=O)[C@H](CCCN)NCc2cccnc2Sc2cccc(-c3ccc(C(=O)O)cc3)c2CNC(=O)[C@@H]1Cc1c[nH]c2ccccc12 [zosurabalpin] | – | – | – | – | – | – | – | – | – | – | – | – | – | 4% | 2% | -20% | 0% | 2% | 12% | 9% | inhibition at 10 µM [8]: 6%; inhibition at 10 µM [9]: 7%; inhibition at 10 µM [10]: -4%; inhibition at 10 µM [11]: 3%; inhibition at 10 µM [12]: 17%; inhibition at 10 µM [13]: 4% |
| CN1C(=O)[C@H](CCCCN)NC(=O)[C@H](CCCN)NCc2cccnc2Sc2c(Cl)ccc(Cl)c2CNC(=O)[C@@H]1Cc1c[nH]c2ccccc12 [RO7075573] | – | – | – | – | – | – | – | – | – | – | – | – | – | 21% | 11% | -16% | 11% | 16% | 1% | 26% | inhibition at 10 µM [8]: -7%; inhibition at 10 µM [9]: 22%; inhibition at 10 µM [10]: 4%; inhibition at 10 µM [11]: -17%; inhibition at 10 µM [12]: 11%; inhibition at 10 µM [13]: -5% |
| CN1C(=O)[C@H](CCCCN)NC(=O)[C@H](CCCN)NCc2cccnc2Sc2c(Cl)ccc(-c3ccc(C(=O)O)cc3)c2CNC(=O)[C@@H]1Cc1c[nH]c2ccccc12 [RO7202110] | 26% | 9% | -24% | 13% | 13% | 14% | 32% | -11% | 7% | -3% | 4% | -1% | -2% | – | – | – | – | – | – | – | – |
